Several values for one entry are separate records, joined by “and”; a condition that tells them apart may be missing. Identical values can stand only once. Like-named read-outs stand apart in the source and are kept apart here. Marks after values point to notes of the source that are not given here.

Series [1] concerns adjuvant induced arthritis in rats. The experiment in a line: Adjuvant-induced arthritis in rats. Format: in vivo, rat. The settings on record: for Summary of in vivo adjuvant induced arthritis results: TREATMENT: 7 mg peptide with 1 mg MTB, rats with arthritis/rats in group; for rats with mild disease / minor symptoms / rats showing no symptoms of arthritis / efficacy against MTB-induced arthritis: 7 mg peptide; for rats showing no symptoms of arthritis: duration of the experiment; for effectiveness in adjuvant induced arthritis model, summary statement: summary of Table 4; for efficacy against MTB-induced arthritis: section (ii).

In series [2] the test system is rat T-cell line specific to MTB. The experiment in a line: Antigen-stimulated proliferation of MTB-specific T-cell line (3H-thymidine incorporation). Format: cell-based. Particulars: for effect on T-cell proliferation / counts relative to vehicle control: 100 μM.
Series [3] can be described thus: Solubility of the peptides in stock solutions. Particulars: for appearance of peptide stock solution: stock solutions 1 mg/ml or 1 mM. It counts as physicochemical. How it is done:
The solubility of the peptides was variable. At the concentration of the stock solutions, 1 mg/ml or 1 mM, most peptide solutions looked clear. […] Therefore, the true concentration of peptides in solution in the culture wells would be less than those nominated in the case of these partially soluble peptides. Core peptide could be dissolved at 2 mg/ml, but was not completely soluble at 5 mg/ml. […] The vehicle for the peptides, except M and N, was 0.1% acetic acid which gave 0.01%, i.e., 1.75 mM in the wells. […] In these experiments, effects of peptides could still be determined by comparison with the vehicle control. The 0.05M sodium carbonate buffer, used to dissolve peptides M and N, was not as detrimental to line T-cells as acetic acid.

The test system of series [4] is rat primed lymph node cells (PLNC). Particulars: for effect on antigen-stimulated T-cell proliferation: PLNC Experiment 2, FIG. 3, peptides alone and in combination; for inhibition of antigen-stimulated T-cell proliferation, overall statement: PLNCs and T-cell lines, summary over experiments.
The mark [5] stands for this setting: peptides 7 mg/rat, CS 50 mg/kg, DXM 2 mg/kg.
The mark [6] stands for this setting: section (i), summary of Table 3 experiments.
The mark [7] stands for this setting: T-Cell Line Experiment 2, FIG. 5.
The mark [8] stands for this setting: section (iii), 5 rats per group.
[9] abbreviates: PLNC Experiment 1, FIG. 2, peptide 100 μg/ml.
Where [10] appears, read: respective buffers (0.1% acetic acid; 0.05M sodium carbonate for M and N).

On to H-LGILLLGV-OH [C, L G I L L L G V], for which the “EFFECT on adjuvant induced arthritis” value in series [1] (setting [5]) is “No effect”; in series [1] (setting [6]), “no effect”.
Turning to “H-LLMTLRLWSS-OH [Peptide P, L L M T L R L W S S]”, the “effect on T-cell proliferation” value in series [2] (setting [7]) was “marginal effect”. In series [1], the “Summary of in vivo adjuvant induced arthritis results: TREATMENT” value (“Summary … TREATMENT” for short) is on record as 0/5; the “effectiveness in adjuvant induced arthritis model, summary statement” value (from here on “effectiveness”) is “variable response in the delay of disease induction and severity”. Also, the “rats that developed minor symptoms” value in series [1] (Table 4, of 5 treated rats) is given as “(4 developed minor symptoms)”. The “protection” value in series [1] (section (iii)) was “protective to a variable extent”. Also, in series [1] (setting [8]), the “rats with mild disease / minor symptoms” value is given as “four” and the “rats showing no symptoms of arthritis” value is “one”. In addition, the “appearance of peptide stock solution” value in series [3] was “turbid or had undissolved particles”. The “effect on T-cell proliferation” value in series [4] (setting [9]) is reported as “most inhibitory”. Moreover, the “effect on antigen-stimulated T-cell proliferation” value in series [4] is listed as “showed activity”.
Turning to “H-FLFAEIVSI-OH [Peptide N, F L F A E I V S I]”, the “effect on T-cell proliferation” value in series [2] (setting [7]) is on record as “no effects”. Further, in series [1], the “Summary … TREATMENT” value was 0/5* and the “effectiveness” value is on record as “very effective”. In addition, in series [1] (section (iii)), the “protection” value was “protective to a variable extent”. The “rats showing no symptoms of arthritis” value in series [1] (setting [8]) is listed as “All five”. Also, the solubility in words result in series [3] (setting [10]) was “soluble in their respective buffers”. Moreover, in series [4], the “effect on antigen-stimulated T-cell proliferation” value was “did not reduce proliferation”.
In the case of “H-AGFNLLMT-OH [Peptide O, A G F N L L M T]”, in series [1], the “Summary … TREATMENT” value is listed as 1/10*; the “efficacy against MTB-induced arthritis” value was “most effective at ameliorating the development of MTB-induced arthritis”; the “effectiveness” value is recorded as “very effective”. For the same compound, the “appearance of peptide stock solution” value in series [3] is “turbid or had undissolved particles”.
In the case of “H-YGRADCGITS-OH [Peptide J, Y G R A D G G I T S]”, in series [1], the “Summary … TREATMENT” value is 3/10*; the “efficacy against MTB-induced arthritis” value is listed as “comparable in efficacy”; the “effectiveness” value was “very effective”.
With H-GLRILLLKV-OH [CP, G L R I L L L K V], the “counts (tritiated thymidine incorporation)” value in series [2] (T-Cell Line Experiment 1, FIG. 4, 100 μg/ml, vehicle control approximately 30000) was “approximately 18000 cpm”. In addition, the “counts relative to the control level” value in series [2] (T-Cell Line Experiment 1, FIG. 4, 200 μg/ml) is reported as “about 25%”. Moreover, the “counts relative to vehicle control” value in series [2] (setting [7]) was “approximately 33%”. Besides, in series [2] (T-Cell Line Experiment 2, FIG. 5, 200 μM), the “counts relative to the control” value was around 16%. The “animals with no evidence of arthritis” value in series [1] (first experiment, three rats per group, after 18 days, suspended in adjuvant, base of tail) is 2/3. In addition, the “EFFECT on adjuvant induced arthritis” value in series [1] (setting [5]) is “Protective”. Also, in series [1] (setting [6]), the “EFFECT on adjuvant induced arthritis” value was “Best results”. In addition, in series [4], the “degree of inhibition of antigen-stimulated T-cell proliferation” value is listed as 50-9096%; the “effect on antigen-stimulated T-cell proliferation” value was “reduced antigen-stimulated T-cell proliferation, whether freshly dissolved or stored for more than three months at 4 °C”; the “inhibition of antigen-stimulated T-cell proliferation, overall statement” value was “most effective”. Also, in series [4] (20 μl of 1, 2 or 5 mg/ml stock added to the wells (0.1, 0.2, 0.5 mg/ml)), the “inhibition at different concentrations in the wells” value is 0.2 mg/ml CP was more inhibitory than 0.1 mg/ml and 0.5 mg/ml was less effective. Besides, the “counts relative to the vehicle control (T-cell proliferation)” value in series [4] (PLNC Experiment 1, FIG. 2, peptide 100 μg/ml, MTB 100 μg/ml) is “approximately 10%”. Also, in series [4] (listed as core peptide), the “inhibition of antigen-stimulated T-cell proliferation, overall statement” value is “effective at inhibiting antigen-stimulated T-cell proliferation”. Besides, in series [4] (first experiment), the “proliferation reduced by” value is recorded as “go”.
Take H-ILLLKVAG-OH [B, I L L L K V A G]: the results for the “EFFECT on adjuvant induced arthritis” value in series [1] (setting [5]) and in series [1] (setting [6]) were “Protective” and “Best results”, respectively.
For H-LDILLLEV-OH [E, L D I L L L E V] the same measures were “No effect” and “no effect”.
With “H-IVIVDICIT-OH [Peptide L, I V I V D I C I T]”, in series [1], the “Summary … TREATMENT” value is listed as 0/5* and the “effectiveness” value was “very effective”. In addition, the weight loss entry in series [1] (section (iv), FIG. 10, 7 mg peptide L, five rats) is “none of the peptide L treated group lost weight”. Further, the “paw and ankle thickness” value in series [1] (section (iv), FIG. 11(a–d), 7 mg peptide L) is “significantly decreased compared to control”.
On to “H-LRILLLGV-OH [Peptide H, L R I L L L G V]”, for which the “counts relative to vehicle control” value in series [2] (setting [7]) came to 66%. The “EFFECT on adjuvant induced arthritis” value in series [1] (setting [5]) was “Protective”. Moreover, in series [3], the “appearance of peptide stock solution” value is reported as “turbid or had undissolved particles”. Also, the “effect on T-cell proliferation” value in series [4] (setting [9]) was “appeared to reduce T-cell proliferation”.
For “H-MGLRILLL-OH [Peptide A, M G L R I L L L]”, the “EFFECT on adjuvant induced arthritis” value in series [1] (setting [5]) was “Protective”.
Consider H-LGILLLKV-OH [I, L G I L L L K V], for which the “EFFECT on adjuvant induced arthritis” value in series [1] (setting [5]) is listed as “Protective”. In addition, the “appearance of peptide stock solution” value in series [3] is “turbid or had undissolved particles”.
Regarding `C[C@@H]1C[C@H]2[C@@H]3CCC4=CC(=O)C=C[C@]4(C)[C@@]3(F)[C@@H](O)C[C@]2(C)[C@@]1(O)C(=O)CO` [DXM*, dexamethasone, reference compound], the “EFFECT on adjuvant induced arthritis” value in series [1] (setting [5]) is given as “No effect+”.
For “H-IIVTDVIATL-OH [Peptide M, I I V T D V I A T L]”, the “effect on T-cell proliferation” value in series [2] (setting [7]) is on record as “no effects”. In series [1], the “Summary … TREATMENT” value is 2/5; the “effectiveness” value is “variable response in the delay of disease induction and severity”. For the same compound, the “protection” value in series [1] (section (iii)) is recorded as “protective to a variable extent”. Further, in series [1] (setting [8]), the “rats with mild disease / minor symptoms” value was “Two” and the “rats showing no symptoms of arthritis” value is “One”. Further, the “rats of the group killed” value in series [1] (section (iii), 5 rats per group, on days 19 and 21) came out at 2. In addition, in series [3], the solubility in words entry was “soluble in their respective buffers”. The “effect on antigen-stimulated T-cell proliferation” value in series [4] is “did not reduce proliferation”.
In the case of “H-SSDVPCDATLT-OH [K, S S D V P C D A T L T]”, in series [1], the “Summary … TREATMENT” value is given as 5/10; the “efficacy against MTB-induced arthritis” value is reported as “comparable in efficacy”; the “effectiveness” value was “variable response in the delay of disease induction and severity”. Moreover, the solubility in words result in series [3] (setting [10]) was “soluble in their respective buffers”.

(Values after patent US7192928B1, “T cell antigen receptor peptides” (Northern Sydney & Central Coast Area Health Services, priority 1996, dated 2007).)
